Measured values: ChEMBL document CHEMBL4619777, “A New Class of Dengue and West Nile Virus Protease Inhibitors with Submicromolar Activity in Reporter Gene DENV-2 Protease and Viral Replication Assays” (J Med Chem, 2020)
The source made the active and inactive calls.

How the values were obtained:
[1] = molecular target: Genome polyprotein (dengue virus type 2) (UniProt P29990); assay: Inhibition of Dengue virus serotype 2 NS2B-NS3 protease expressed in Escherichia coli BL21 lambda (DE3) cells at 50 uM measured after 1 hr in presence of DENV protease inhibitor aprotinin by tryptophan fluorescence quenching method
[2] = molecular target: Genome polyprotein (dengue virus type 2) (UniProt P29990); assay: Inhibition of Dengue virus serotype 2 NS2B-NS3 protease expressed in Escherichia coli BL21 lambda (DE3) cells at 50 uM using Abz-Nle-Lys-Arg-Arg-Ser-3-(NO2)Tyr as substrate preincubated for 15 mins followed by substrate addition and measured after 15 mins by HPLC analysis relative to control
[3] = molecular target: Genome polyprotein (West Nile virus) (UniProt P06935); assay: Inhibition of West Nile virus NS2B-NS3 protease expressed in Escherichia coli BL21 lambda (DE3) cells at 50 uM using Abz-Gly-Leu-Lys-Arg-Gly-Gly-3-(NO2)Tyr as substrate preincubated for 15 mins followed by substrate addition measured after 15 mins by HPLC analysis relative to control
[4] = molecular target: Genome polyprotein (dengue virus type 2) (UniProt P29990); assay: Inhibition of Dengue virus serotype 2 NS2B-NS3 protease expressed in Escherichia coli BL21 lambda (DE3) cells measured after 1 hr by tryptophan fluorescence quenching method
Genome polyprotein [5] = molecular target: T1, Genome polyprotein (dengue virus type 2, UniProt P29990); assay: Inhibition of Dengue virus serotype 2 NS2B-NS3 protease transfected in human HeLa cells measured after 24 hrs by Renilla-luciferase reporter gene assay; type: cell-based
[6] = Cytotoxicity against human HeLa cells assessed as reduction in cell viability measured after 24 hrs by celltiter-blue assay; type: cell-based
Prothrombin = Prothrombin (Homo sapiens, UniProt P00734); assay: Inhibition of thrombin (unknown origin) at 25 uM using Boc-Val-Pro-Arg-AMC as substrate preincubated for 15 mins followed by substrate addition and measured for 15 mins by fluorimetric assay; conditions: 0.25 h
Trypsin = Trypsin (Homo sapiens, UniProt P07477+P07478+P35030); assay: Inhibition of trypsin (unknown origin) at 50 uM using Boc-Val-Pro-Arg-AMC as substrate preincubated for 15 mins followed by substrate addition and measured for 15 mins by fluorimetric assay relative to control; type: protein assay; conditions: 0.25 h, 50 µM
Genome polyprotein [7] = molecular target: T2, Genome polyprotein (West Nile virus, UniProt P06935); assay: Inhibition of West Nile virus NS2B-NS3 protease expressed in Escherichia coli BL21 lambda (DE3) cells using Abz-Gly-Leu-Lys-Arg-Gly-Gly-3-(NO2)Tyr as substrate preincubated for 15 mins followed by substrate addition measured after 15 mins by HPLC analysis
Genome polyprotein [8] = molecular target: T1, Genome polyprotein; assay: Inhibition of Dengue virus serotype 2 NS2B-NS3 protease expressed in Escherichia coli BL21 lambda (DE3) cells using Abz-Nle-Lys-Arg-Arg-Ser-3-(NO2)Tyr as substrate preincubated for 15 mins followed by substrate addition and measured after 15 mins by HPLC analysis
[9] = molecular target: Genome polyprotein (dengue virus type 2) (UniProt P29990); assay: Inhibition of Dengue virus serotype 2 NS2B-NS3 protease transfected in human HeLa cells at 12.5 uM measured after 24 hrs by Renilla-luciferase reporter gene assay relative to control; type: cell-based
Genome polyprotein [10] = molecular target: T2, Genome polyprotein; assay: Inhibition of West Nile virus NS2B-NS3 protease expressed in Escherichia coli BL21 lambda (DE3) cells using Abz-Gly-Leu-Lys-Arg-Gly-Gly-3-(NO2)Tyr as substrate preincubated for 15 mins followed by substrate addition measured for 15 mins by fluorimetric analysis
[11] = molecular target: Genome polyprotein (West Nile virus) (UniProt P06935); assay: Competitive inhibition of West Nile virus NS2B-NS3 protease expressed in Escherichia coli BL21 lambda (DE3) cells using varying levels of Abz-Gly-Leu-Lys-Arg-Gly-Gly-3-(NO2)Tyr as substrate by Cheng-Prusoff plot analysis
Genome polyprotein [12] = molecular target: T1, Genome polyprotein; assay: Inhibition of Dengue virus serotype 2 NS2B-NS3 protease expressed in Escherichia coli BL21 lambda (DE3) cells using Abz-Nle-Lys-Arg-Arg-Ser-3-(NO2)Tyr as substrate preincubated for 15 mins followed by substrate addition and measured for 15 mins by FRET assay
[13] = Permeability of the compound assessed as mass retention at 200 uM measured after 5 hrs at pH 7.4 by PAMPA; type: ADME; conditions: pH 7.4, 5 h
dengue virus type 2 [14] = assay: Antiviral activity against DENV2 infected in human HuH7 cells assessed as reduction in virus titer measured after 48 hrs; type: functional, organism-based; conditions: Huh-7, 48 h
[15] = molecular target: Genome polyprotein (dengue virus type 2) (UniProt P29990); assay: Inhibition of Dengue virus serotype 2 NS2B-NS3 protease expressed in Escherichia coli BL21 lambda (DE3) cells at 50 uM using Abz-Nle-Lys-Arg-Arg-Ser-3-(NO2)Tyr as substrate preincubated for 15 mins followed by substrate addition and measured for 15 mins by FRET assay relative to control
[16] = Drug metabolism in pH13 sodium hydroxide solution assessed as racemization incubated for 96 hrs at room temperature RP-HPLC analysis; type: physicochemical; conditions: pH 13, 96 h
[17] = Drug metabolism in pH 9 Tris-HCl buffer assessed as racemization incubated for 96 hrs at 37 degC RP-HPLC analysis; type: physicochemical; conditions: pH 9, 96 h
dengue virus type 2 [18] = assay: Antiviral activity against DENV2 infected in human HuH7 cells assessed as reduction in virus titer at 10 uM measured after 48 hrs relative to control; type: functional; conditions: Huh-7, 48 h
[19] = molecular target: Genome polyprotein (dengue virus type 2) (UniProt P29990); assay: Competitive inhibition of Dengue virus serotype 2 NS2B-NS3 protease expressed in Escherichia coli BL21 lambda (DE3) cells using varying levels of Abz-Nle-Lys-Arg-Arg-Ser-3-(NO2)Tyr as substrate by Cheng-Prusoff plot analysis
[20] = Drug metabolism in pH 7 DENV2proHeLa medium assessed as racemization incubated for 96 hrs at 37 degC RP-HPLC analysis; type: physicochemical; conditions: pH 7, 96 h
[21] = Permeability of the compound assessed as drug level in donor plate at 200 uM measured after 5 hrs at pH 7.4 by PAMPA; type: ADME; conditions: pH 7.4, 5 h
[22] = Drug metabolism in pH 7.4 phosphate buffered saline assessed as racemization incubated for 96 hrs at 37 degC RP-HPLC analysis; type: physicochemical; conditions: buffer, pH 7.4, 96 h
Huh-7 = assay: Cytotoxicity against human HuH7 cells assessed as reduction in cell viability at 12 uM measured after 48 hrs by celltiter-blue assay; type: cell-based; conditions: huh-7, 48 h
[23] = Permeability of the compound assessed as drug level in acceptor plate at 200 uM measured after 5 hrs at pH 7.4 by PAMPA; type: ADME; conditions: pH 7.4, 5 h
[24] = Permeability of the compound at 200 uM measured after 5 hrs at pH 7.4 by PAMPA; type: ADME; conditions: read-out: permeability
[25] = Drug metabolism in pH13 sodium hydroxide solution assessed as racemization incubated for 96 hrs at 37 degC RP-HPLC analysis; type: physicochemical; conditions: pH 13, 96 h
[26] = molecular target: Genome polyprotein (West Nile virus) (UniProt P06935); assay: Inhibition of West Nile virus NS2B-NS3 protease expressed in Escherichia coli BL21 lambda (DE3) cells at 50 uM using Abz-Gly-Leu-Lys-Arg-Gly-Gly-3-(NO2)Tyr as substrate preincubated for 15 mins followed by substrate addition measured for 15 mins by fluorimetric analysis relative to control

Sequence of Genome polyprotein (West Nile virus) (P06935 whole entry): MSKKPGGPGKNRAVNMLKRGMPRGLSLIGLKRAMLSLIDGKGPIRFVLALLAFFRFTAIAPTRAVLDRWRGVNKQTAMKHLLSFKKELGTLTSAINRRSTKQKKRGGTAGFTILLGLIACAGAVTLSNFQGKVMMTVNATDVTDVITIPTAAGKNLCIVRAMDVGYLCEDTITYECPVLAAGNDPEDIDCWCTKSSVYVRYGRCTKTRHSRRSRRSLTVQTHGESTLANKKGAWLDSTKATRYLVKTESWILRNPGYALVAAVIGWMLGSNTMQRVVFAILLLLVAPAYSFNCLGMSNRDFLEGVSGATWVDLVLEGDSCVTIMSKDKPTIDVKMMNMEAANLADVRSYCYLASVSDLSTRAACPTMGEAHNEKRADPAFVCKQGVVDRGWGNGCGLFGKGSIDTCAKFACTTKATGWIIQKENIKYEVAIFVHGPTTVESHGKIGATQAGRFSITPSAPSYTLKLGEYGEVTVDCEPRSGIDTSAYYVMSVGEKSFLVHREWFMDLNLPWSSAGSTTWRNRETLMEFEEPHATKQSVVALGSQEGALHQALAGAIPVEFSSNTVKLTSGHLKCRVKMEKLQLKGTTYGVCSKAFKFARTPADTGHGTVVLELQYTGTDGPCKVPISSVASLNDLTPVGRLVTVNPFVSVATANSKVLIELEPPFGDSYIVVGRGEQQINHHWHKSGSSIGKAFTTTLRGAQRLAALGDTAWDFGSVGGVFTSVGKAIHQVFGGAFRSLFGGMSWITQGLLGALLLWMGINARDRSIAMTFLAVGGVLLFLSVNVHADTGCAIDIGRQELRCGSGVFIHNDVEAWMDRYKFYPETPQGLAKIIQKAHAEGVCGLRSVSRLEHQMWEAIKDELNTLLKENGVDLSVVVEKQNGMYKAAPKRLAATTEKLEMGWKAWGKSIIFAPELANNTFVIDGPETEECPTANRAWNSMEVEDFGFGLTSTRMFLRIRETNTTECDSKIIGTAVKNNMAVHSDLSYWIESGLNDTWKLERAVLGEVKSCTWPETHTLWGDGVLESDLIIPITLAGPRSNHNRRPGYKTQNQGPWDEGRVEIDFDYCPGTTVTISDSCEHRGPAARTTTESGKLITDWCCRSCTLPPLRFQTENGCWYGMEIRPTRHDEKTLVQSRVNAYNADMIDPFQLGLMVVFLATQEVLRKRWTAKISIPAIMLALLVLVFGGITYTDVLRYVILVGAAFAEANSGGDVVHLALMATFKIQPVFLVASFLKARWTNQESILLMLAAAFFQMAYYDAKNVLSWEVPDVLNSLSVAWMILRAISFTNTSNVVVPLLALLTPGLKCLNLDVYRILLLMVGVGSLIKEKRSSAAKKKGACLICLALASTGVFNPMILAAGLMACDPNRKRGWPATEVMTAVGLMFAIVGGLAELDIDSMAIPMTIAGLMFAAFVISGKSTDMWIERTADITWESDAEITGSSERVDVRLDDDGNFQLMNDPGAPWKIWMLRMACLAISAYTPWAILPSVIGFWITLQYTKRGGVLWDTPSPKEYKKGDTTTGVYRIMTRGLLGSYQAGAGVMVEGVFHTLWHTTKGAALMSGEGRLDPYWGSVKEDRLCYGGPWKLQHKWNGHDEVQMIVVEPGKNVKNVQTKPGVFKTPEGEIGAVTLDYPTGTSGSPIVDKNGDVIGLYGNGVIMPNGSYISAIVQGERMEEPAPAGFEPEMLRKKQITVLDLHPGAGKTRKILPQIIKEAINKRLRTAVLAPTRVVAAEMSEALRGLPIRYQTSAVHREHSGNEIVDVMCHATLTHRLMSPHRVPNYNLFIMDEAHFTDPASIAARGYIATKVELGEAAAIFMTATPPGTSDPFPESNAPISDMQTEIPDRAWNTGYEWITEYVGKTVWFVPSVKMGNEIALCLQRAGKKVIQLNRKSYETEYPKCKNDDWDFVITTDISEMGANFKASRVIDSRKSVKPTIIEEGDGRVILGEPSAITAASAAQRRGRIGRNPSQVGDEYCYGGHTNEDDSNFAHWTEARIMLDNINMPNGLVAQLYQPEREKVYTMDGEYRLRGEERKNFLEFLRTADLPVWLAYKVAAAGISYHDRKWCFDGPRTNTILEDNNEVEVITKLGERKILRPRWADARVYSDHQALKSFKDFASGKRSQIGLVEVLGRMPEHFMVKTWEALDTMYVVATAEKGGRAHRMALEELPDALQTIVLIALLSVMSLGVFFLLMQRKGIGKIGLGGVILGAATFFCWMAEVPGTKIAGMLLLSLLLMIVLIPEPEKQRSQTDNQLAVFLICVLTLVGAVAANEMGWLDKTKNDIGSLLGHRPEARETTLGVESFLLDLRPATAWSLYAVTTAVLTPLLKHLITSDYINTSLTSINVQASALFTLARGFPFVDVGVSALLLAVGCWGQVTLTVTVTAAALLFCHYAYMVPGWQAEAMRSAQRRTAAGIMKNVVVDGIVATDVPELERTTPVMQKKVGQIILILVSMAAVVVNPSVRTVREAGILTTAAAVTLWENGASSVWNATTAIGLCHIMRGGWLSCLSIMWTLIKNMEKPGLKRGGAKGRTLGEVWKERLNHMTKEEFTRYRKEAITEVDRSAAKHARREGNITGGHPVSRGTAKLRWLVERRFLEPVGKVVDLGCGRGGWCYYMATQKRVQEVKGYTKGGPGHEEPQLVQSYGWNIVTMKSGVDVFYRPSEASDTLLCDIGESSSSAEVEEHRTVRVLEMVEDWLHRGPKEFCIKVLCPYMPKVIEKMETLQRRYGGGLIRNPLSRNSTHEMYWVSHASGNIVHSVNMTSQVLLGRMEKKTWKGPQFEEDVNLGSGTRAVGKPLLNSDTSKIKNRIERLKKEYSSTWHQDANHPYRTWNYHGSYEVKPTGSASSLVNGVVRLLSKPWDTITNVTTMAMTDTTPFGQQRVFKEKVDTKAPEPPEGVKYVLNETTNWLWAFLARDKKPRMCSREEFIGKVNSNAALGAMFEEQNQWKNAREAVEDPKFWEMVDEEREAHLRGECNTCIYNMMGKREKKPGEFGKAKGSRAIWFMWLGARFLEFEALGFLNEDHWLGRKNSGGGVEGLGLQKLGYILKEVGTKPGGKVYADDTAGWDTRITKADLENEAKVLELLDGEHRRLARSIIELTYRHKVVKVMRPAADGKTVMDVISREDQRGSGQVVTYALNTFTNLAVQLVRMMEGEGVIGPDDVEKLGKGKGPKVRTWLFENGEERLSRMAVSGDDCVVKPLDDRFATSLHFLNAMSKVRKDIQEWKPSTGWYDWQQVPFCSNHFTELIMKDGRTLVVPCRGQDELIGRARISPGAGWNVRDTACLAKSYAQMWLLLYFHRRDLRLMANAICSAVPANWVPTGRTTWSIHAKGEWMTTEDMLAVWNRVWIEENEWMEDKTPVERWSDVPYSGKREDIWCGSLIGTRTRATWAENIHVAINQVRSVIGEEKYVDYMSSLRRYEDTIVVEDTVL
T2 sequence (P06935 1371-1501 limits assumed): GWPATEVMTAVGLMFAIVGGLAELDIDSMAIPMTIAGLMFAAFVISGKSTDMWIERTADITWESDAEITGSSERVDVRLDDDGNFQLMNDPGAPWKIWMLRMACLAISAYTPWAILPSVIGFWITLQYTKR
T2 sequence (P06935 1502-2120 limits assumed): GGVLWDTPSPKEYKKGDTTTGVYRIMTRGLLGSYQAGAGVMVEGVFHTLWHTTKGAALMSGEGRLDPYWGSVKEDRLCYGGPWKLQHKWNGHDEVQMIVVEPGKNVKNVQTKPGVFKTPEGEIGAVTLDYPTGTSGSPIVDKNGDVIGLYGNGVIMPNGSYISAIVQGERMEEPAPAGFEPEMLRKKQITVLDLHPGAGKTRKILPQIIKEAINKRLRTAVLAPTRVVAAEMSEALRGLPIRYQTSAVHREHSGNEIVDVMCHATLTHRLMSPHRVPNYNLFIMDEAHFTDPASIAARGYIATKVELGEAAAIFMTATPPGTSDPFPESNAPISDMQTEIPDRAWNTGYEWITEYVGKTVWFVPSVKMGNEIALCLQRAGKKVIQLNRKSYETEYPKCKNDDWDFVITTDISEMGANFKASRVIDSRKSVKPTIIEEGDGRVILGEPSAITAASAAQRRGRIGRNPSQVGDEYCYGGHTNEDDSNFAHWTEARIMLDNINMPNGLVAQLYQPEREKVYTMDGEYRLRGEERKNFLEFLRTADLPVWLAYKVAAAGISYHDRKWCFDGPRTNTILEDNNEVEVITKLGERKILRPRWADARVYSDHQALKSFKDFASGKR

N=C(N)Nc1ccc(CNC(=O)[C@@H](NC(=O)c2ccc(-c3cccs3)s2)c2ccc(OCc3ccccc3)cc2)cc1.O=C(O)C(F)(F)F
inhibition [1]: inactive
inhibition [2]: 99.7%
inhibition [3]: 93.6%
inhibition [4]: Dose-dependent effect
EC50 (Genome polyprotein [5]): 9.3 µM
CC50 at 24 h [6]: > 50 µM
inhibition (INH) (Prothrombin): Not Active
inhibition (INH) (Trypsin): Not Active
IC50 (Genome polyprotein [7]): 6.5 µM
IC50 (Genome polyprotein [8]): 6.3 µM
inhibition [9]: 52.6%

CCCCCC(=O)N[C@H](C(=O)NCc1ccc(NC(=N)N)cc1)c1ccc(OCc2ccccc2)cc1.O=C(O)C(F)(F)F
IC50 (Genome polyprotein [10]): 13 µM
Ki (Genome polyprotein [10]): 12 to 12.4 µM
inhibition [11]: Active
IC50 (Genome polyprotein [12]): 11 µM
Ki (Genome polyprotein [12]): 9.8 µM
R% [13]: 12%
EC50 (dengue virus type 2 [14]): 0.89 µM
inhibition [15]: 95.1%
Drug metabolism [16]: Metabolite_Detected
EC50 (Genome polyprotein [5]): 0.49 µM
Drug metabolism [17]: Metabolite_Notdetected
inhibition at 10 µM (dengue virus type 2 [18]): 84.5%
inhibition [19]: Active
CC50 at 24 h [6]: > 50 µM
Drug metabolism [20]: Metabolite_Notdetected
Drug uptake [21]: 171 µM
inhibition (INH) (Prothrombin): Not Active
Drug metabolism [22]: Metabolite_Notdetected
Activity (Huh-7): Non-Toxic
Drug uptake [23]: 7.5 µM
inhibition (INH) (Trypsin): Not Active
Papp at 5 h, 200 µM [24]: 1.6 ×10⁻⁶ cm/s
Drug metabolism [25]: Metabolite_Detected
inhibition [26]: 102%
inhibition [9]: 79.8%
